Legend:
Assay in all cases: relative viability (nuclei count vs DMSO), 5 days (fraction); higher = more cells survive
[1] = system: NCI-H1734
How it was run: (§1)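 Lung cancer cell lines, seeded in 1536-well plates, were treated the following day by pin tool with a single drug or with five library-drug doses (not always all listed) in √10 steps on top of a fixed anchor-drug dose. Cells were fixed and nuclei stained in one step after 5 days, and nuclei were counted. Relative viability is the nuclei count for treated wells divided by that for vehicle wells, reported as medians of duplicate plates.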

[2] = system: HCC-366
How it was run: as §1

[3] = system: NCI-H2170
How it was run: as §1

[4] = system: NCI-H1792
How it was run: as §1

[5] = system: H3255
How it was run: as §1

[6] = system: EKVX
How it was run: as §1

[7] = system: NCI-H520
How it was run: as §1

[8] = system: NCI-H1666
How it was run: as §1

[9] = system: NCI-H1563
How it was run: as §1

[10] = system: NCI-H596
How it was run: as §1

[11] = system: LK-2
How it was run: as §1

[12] = system: NCI-H23
How it was run: as §1

[13] = system: COR-L 105
How it was run: as §1

[14] = system: ChaGo-K-1
How it was run: as §1

[15] = system: SK-MES-1
How it was run: as §1

[16] = system: EMC-BAC-2
How it was run: as §1

[17] = system: NCI-H441
How it was run: as §1

[18] = system: SW 900
How it was run: as §1

[19] = system: NCI-H1755
How it was run: as §1

[20] = system: LOU-NH91
How it was run: as §1

[21] = system: NCI-H1975
How it was run: as §1

[22] = system: PC-3 [JPC-3]
How it was run: as §1

[23] = system: A-427
How it was run: as §1

Work on `NC(=O)Nc1cc(-c2cccc(F)c2)sc1C(=O)N[C@H]1CCCNC1` [AZD7762] + N=C(N)NC(=N)NCCc1ccccc1 [Phenformin] (partner 250 µM) yielded a relative viability ([1]; first compound 0.01 µM) of 0.44, a relative viability ([1]; first compound 0.03162 µM) of 0.44 and a relative viability ([1]; first compound 0.1 µM) of 0.398. It also gave a relative viability ([1]; first compound 0.3162 µM) of 0.33, a relative viability ([1]; first compound 1 µM) of 0.211 and a relative viability ([2]; first compound 0.01 µM) of 0.601. For the same compound, the relative viability ([2]; first compound 0.03162 µM) was 0.615, the relative viability ([2]; first compound 0.1 µM) was 0.627 and the relative viability ([2]; first compound 0.3162 µM) was 0.485. The relative viability ([2]; first compound 1 µM) was 0.312, the relative viability ([3]; first compound 0.01 µM) was 0.411 and the relative viability ([3]; first compound 0.03162 µM) was 0.41. For the same compound, the relative viability ([3]; first compound 0.1 µM) was 0.471, the relative viability ([3]; first compound 0.3162 µM) was 0.384 and the relative viability ([3]; first compound 1 µM) was 0.423. It also gave a relative viability ([4]; first compound 0.01 µM) of 0.412, a relative viability ([4]; first compound 0.03162 µM) of 0.26 and a relative viability ([4]; first compound 0.1 µM) of 0.442. The relative viability ([4]; first compound 0.3162 µM) was 0.736, the relative viability ([4]; first compound 1 µM) was 0.258 and the relative viability ([5]; first compound 0.01 µM) was 0.337. The relative viability ([5]; first compound 0.03162 µM) was 0.357, the relative viability ([5]; first compound 0.1 µM) was 0.402 and the relative viability ([5]; first compound 0.3162 µM) was 0.378. The relative viability ([5]; first compound 1 µM) was 0.374, the relative viability ([6]; first compound 0.01 µM) was 0.194 and the relative viability ([6]; first compound 0.03162 µM) was 0.244. For the same compound, the relative viability ([6]; first compound 0.1 µM) was 0.245, the relative viability ([6]; first compound 0.3162 µM) was 0.229 and the relative viability ([6]; first compound 1 µM) was 0.206. The relative viability ([7]; first compound 0.01 µM) was 0.623, the relative viability ([7]; first compound 0.03162 µM) was 0.758 and the relative viability ([7]; first compound 0.1 µM) was 0.585. The relative viability ([7]; first compound 0.3162 µM) was 0.306, the relative viability ([7]; first compound 1 µM) was 0.283 and the relative viability ([8]; first compound 0.01 µM) was 0.549. The relative viability ([8]; first compound 0.03162 µM) was 0.596, the relative viability ([8]; first compound 0.1 µM) was 0.532 and the relative viability ([8]; first compound 0.3162 µM) was 0.554. The relative viability ([8]; first compound 1 µM) was 0.467, the relative viability ([9]; first compound 0.01 µM) was 0.645 and the relative viability ([9]; first compound 0.03162 µM) was 0.691. The relative viability ([9]; first compound 0.1 µM) was 0.687, the relative viability ([9]; first compound 0.3162 µM) was 0.612 and the relative viability ([9]; first compound 1 µM) was 0.694. The relative viability ([10]; first compound 0.01 µM) was 0.701, the relative viability ([10]; first compound 0.03162 µM) was 0.836 and the relative viability ([10]; first compound 0.1 µM) was 0.641. For the same compound, the relative viability ([10]; first compound 0.3162 µM) was 0.809, the relative viability ([10]; first compound 1 µM) was 0.673 and the relative viability ([11]; first compound 0.01 µM) was 0.396. For the same compound, the relative viability ([11]; first compound 0.03162 µM) was 0.75, the relative viability ([11]; first compound 0.1 µM) was 0.384 and the relative viability ([11]; first compound 0.3162 µM) was 0.45. It also gave a relative viability ([11]; first compound 1 µM) of 0.31, a relative viability ([12]; first compound 0.01 µM) of 0.813 and a relative viability ([12]; first compound 0.03162 µM) of 0.831. The relative viability ([12]; first compound 0.1 µM) was 0.808, the relative viability ([12]; first compound 0.3162 µM) was 0.654 and the relative viability ([12]; first compound 1 µM) was 0.434. For the same compound, the relative viability ([13]; first compound 0.01 µM) was 0.5, the relative viability ([13]; first compound 0.03162 µM) was 0.491 and the relative viability ([13]; first compound 0.1 µM) was 0.477. For the same compound, the relative viability ([13]; first compound 0.3162 µM) was 0.429, the relative viability ([13]; first compound 1 µM) was 0.254 and the relative viability ([14]; first compound 0.01 µM) was 0.517. It also gave a relative viability ([14]; first compound 0.03162 µM) of 0.513, a relative viability ([14]; first compound 0.1 µM) of 0.479 and a relative viability ([14]; first compound 0.3162 µM) of 0.468. For the same compound, the relative viability ([14]; first compound 1 µM) was 0.496, the relative viability ([15]; first compound 0.01 µM) was 0.699 and the relative viability ([15]; first compound 0.03162 µM) was 0.663. For the same compound, the relative viability ([15]; first compound 0.1 µM) was 0.709, the relative viability ([15]; first compound 0.3162 µM) was 0.501 and the relative viability ([15]; first compound 1 µM) was 0.158. The relative viability ([16]; first compound 0.01 µM) was 0.52, the relative viability ([16]; first compound 0.03162 µM) was 0.581 and the relative viability ([16]; first compound 0.1 µM) was 0.542. For the same compound, the relative viability ([16]; first compound 0.3162 µM) was 0.448, the relative viability ([16]; first compound 1 µM) was 0.474 and the relative viability ([17]; first compound 0.01 µM) was 1.05. For the same compound, the relative viability ([17]; first compound 0.03162 µM) was 0.732, the relative viability ([17]; first compound 0.1 µM) was 0.91 and the relative viability ([17]; first compound 0.3162 µM) was 1.04. The relative viability ([17]; first compound 1 µM) was 0.618, the relative viability ([18]; first compound 0.01 µM) was 0.777 and the relative viability ([18]; first compound 0.03162 µM) was 0.746. For the same compound, the relative viability ([18]; first compound 0.1 µM) was 0.65, the relative viability ([18]; first compound 0.3162 µM) was 0.579 and the relative viability ([18]; first compound 1 µM) was 0.29. For the same compound, the relative viability ([19]; first compound 0.01 µM) was 0.636, the relative viability ([19]; first compound 0.03162 µM) was 0.704 and the relative viability ([19]; first compound 0.1 µM) was 0.656. The relative viability ([19]; first compound 0.3162 µM) was 0.596, the relative viability ([19]; first compound 1 µM) was 0.423 and the relative viability ([20]; first compound 0.01 µM) was 0.783. The relative viability ([20]; first compound 0.03162 µM) was 0.76, the relative viability ([20]; first compound 0.1 µM) was 0.717 and the relative viability ([20]; first compound 0.3162 µM) was 0.772. For the same compound, the relative viability ([20]; first compound 1 µM) was 0.525, the relative viability ([21]; first compound 0.01 µM) was 0.425 and the relative viability ([21]; first compound 0.03162 µM) was 0.411. The relative viability ([21]; first compound 0.1 µM) was 0.417, the relative viability ([21]; first compound 0.3162 µM) was 0.386 and the relative viability ([21]; first compound 1 µM) was 0.328. The relative viability ([22]; first compound 0.01 µM) was 0.485, the relative viability ([22]; first compound 0.03162 µM) was 0.503 and the relative viability ([22]; first compound 0.1 µM) was 0.449. It also gave a relative viability ([22]; first compound 0.3162 µM) of 0.484, a relative viability ([22]; first compound 1 µM) of 0.405 and a relative viability ([23]; first compound 0.01 µM) of 0.255. It also gave a relative viability ([23]; first compound 0.03162 µM) of 0.346, a relative viability ([23]; first compound 0.1 µM) of 0.292 and a relative viability ([23]; first compound 0.3162 µM) of 0.304. It also gave a relative viability ([23]; first compound 1 µM) of 0.197.
